Assays:
Format in all cases: in vivo
[1] = test system: barnyardgrass (Echinochloa crus-galli); assay: Test A preemergence, barnyardgrass; settings: Preemergence; for Plant response rating, Barnyardgrass: 125 g ai/ha, visual injury, 0 to 100 scale (0 no effect, 100 complete control), approx. 10 days; for Barnyardgrass plant response rating: 500 g ai/ha, visual injury on 0 to 100 scale (0 no effect, 100 complete control), approximately 10 days
Summary of the method: (§1)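 Formulated with a surfactant in a non-phytotoxic solvent, compounds are applied to loam–sand pots, either to bare soil immediately after seeding (preemergence) or to seedlings of 2 to 10 cm bearing one to two leaves (postemergence).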

[2] = test system: kochia (Bassia scoparia); assay: Test A preemergence, kochia; settings: Preemergence; for Plant response rating, Kochia: 125 g ai/ha, visual injury, 0 to 100 scale (0 no effect, 100 complete control), approx. 10 days; for Kochia plant response rating: 500 g ai/ha, visual injury on 0 to 100 scale (0 no effect, 100 complete control), approximately 10 days
Summary of the method: as §1

[3] = test system: ragweed (common ragweed, Ambrosia artemisiifolia); assay: Test A preemergence, ragweed; settings: Preemergence; for Plant response rating, Ragweed: 125 g ai/ha, visual injury, 0 to 100 scale (0 no effect, 100 complete control), approx. 10 days; for Ragweed plant response rating: 500 g ai/ha, visual injury on 0 to 100 scale (0 no effect, 100 complete control), approximately 10 days
Summary of the method: as §1

[4] = test system: Ryegrass, Italian (Italian ryegrass, Lolium multiflorum); assay: Test A preemergence, Ryegrass, Italian; settings: Preemergence; for Plant response rating, Ryegrass, Italian: 125 g ai/ha, visual injury, 0 to 100 scale (0 no effect, 100 complete control), approx. 10 days; for Ryegrass, Italian plant response rating: 500 g ai/ha, visual injury on 0 to 100 scale (0 no effect, 100 complete control), approximately 10 days
Summary of the method: as §1

[5] = test system: Foxtail, Giant (giant foxtail, Setaria faberi); assay: Test A preemergence, Foxtail, Giant; settings: Preemergence; for Plant response rating, Foxtail, Giant: 125 g ai/ha, visual injury, 0 to 100 scale (0 no effect, 100 complete control), approx. 10 days; for Foxtail, Giant plant response rating: 500 g ai/ha, visual injury on 0 to 100 scale (0 no effect, 100 complete control), approximately 10 days
Summary of the method: as §1

[6] = test system: pigweed (Amaranthus retroflexus); assay: Test A preemergence, pigweed; settings: for Plant response rating, Pigweed: 125 g ai/ha, visual injury, 0 to 100 scale (0 no effect, 100 complete control), approx. 10 days; for Pigweed plant response rating: 500 g ai/ha, visual injury on 0 to 100 scale (0 no effect, 100 complete control), approximately 10 days
Summary of the method: (§2)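 Preemergence: pigweed seeds in loam soil–sand blend received a directed soil spray of test chemicals in a non-phytotoxic solvent with surfactant. Postemergence: barnyardgrass, wheat and galium in pots of the same soil, 2 to 10 cm tall at one- to two-leaf stage, sprayed with the same formulation.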

[7] = test system: barnyardgrass (Echinochloa crus-galli); assay: Test A postemergence, barnyardgrass; settings: Postemergence, 0 to 100 scale (0 no effect, 100 complete control)
Summary of the method: as §2

[8] = test system: kochia (Bassia scoparia); assay: Test A postemergence, kochia; settings: Postemergence, 0 to 100 scale (0 no effect, 100 complete control)
Summary of the method: as §1

[9] = test system: ragweed (common ragweed, Ambrosia artemisiifolia); assay: Test A postemergence, ragweed; settings: Postemergence, 0 to 100 scale (0 no effect, 100 complete control)
Summary of the method: as §1

[10] = test system: Ryegrass, Italian (Italian ryegrass, Lolium multiflorum); assay: Test A postemergence, Ryegrass, Italian; settings: Postemergence, 0 to 100 scale (0 no effect, 100 complete control)
Summary of the method: as §1

[11] = test system: Foxtail, Giant (giant foxtail, Setaria faberi); assay: Test A postemergence, Foxtail, Giant; settings: Postemergence, 0 to 100 scale (0 no effect, 100 complete control)
Summary of the method: as §1

[12] = test system: pigweed (Amaranthus retroflexus); assay: Test A postemergence, pigweed; settings: Postemergence, 0 to 100 scale (0 no effect, 100 complete control)
Summary of the method: as §1

[13] = test system: wheat (Triticum aestivum); assay: Test A postemergence, wheat; settings: Postemergence, 0 to 100 scale (0 no effect, 100 complete control)
Summary of the method: as §2

[14] = test system: corn (Zea mays); assay: Test A postemergence, corn; settings: Postemergence, 0 to 100 scale (0 no effect, 100 complete control)
Summary of the method: as §1

[15] = test system: blackgrass (Alopecurus myosuroides); assay: Test A postemergence, blackgrass; settings: Postemergence, 0 to 100 scale (0 no effect, 100 complete control)
Summary of the method: as §1

[16] = test system: galium (catchweed bedstraw, Galium aparine); assay: Test A postemergence, galium; settings: Postemergence, 0 to 100 scale (0 no effect, 100 complete control)
Summary of the method: as §2

[17] = 500 g ai/ha, visual injury approx. 10 days

SMILES	Plant response rating, Barnyardgrass [1]	Barnyardgrass plant response rating [1]	Plant response rating, Kochia [2]	Kochia plant response rating [2]	Plant response rating, Ragweed [3]	Ragweed plant response rating [3]	Plant response rating, Ryegrass, Italian [4]	Ryegrass, Italian plant response rating [4]	Plant response rating, Foxtail, Giant [5]	Foxtail, Giant plant response rating [5]	Plant response rating, Pigweed [6]	Pigweed plant response rating [6]	Plant response rating, Barnyardgrass ([7]; 125 g ai/ha)	Plant response rating, Barnyardgrass [7, 17]	Plant response rating, Kochia ([8]; 125 g ai/ha)	Plant response rating, Kochia [8, 17]	Plant response rating, Ragweed ([9]; 125 g ai/ha)	Plant response rating, Ragweed [9, 17]	Plant response rating, Ryegrass, Italian ([10]; 125 g ai/ha)	Plant response rating, Ryegrass, Italian [10, 17]	other results
Cc1cc(Cl)c(C(=O)N2CCOCC2)cc1NS(=O)(=O)C(F)(F)F [Compound 248]	80	90	90	90	80	90	70	90	40	80	90	90	60	90	60	90	90	90	0	70	Plant response rating, Foxtail, Giant ([11]; 125 g ai/ha): 20; Plant response rating, Foxtail, Giant [11, 17]: 50; Plant response rating, Pigweed ([12]; 125 g ai/ha): 80; Plant response rating, Pigweed [12, 17]: 80; Plant response rating, Wheat ([13]; 125 g ai/ha): 40; Plant response rating, Wheat [13, 17]: 60; Plant response rating, Corn ([14]; 125 g ai/ha): 0; Plant response rating, Corn [14, 17]: 0; Plant response rating, Blackgrass ([15]; 125 g ai/ha): 0; Plant response rating, Blackgrass [15, 17]: 60; Plant response rating, Galium ([16]; 125 g ai/ha): 70; Plant response rating, Galium [16, 17]: 90
Cc1cc(Cl)c(C(=O)N2CCOCC2)cc1N(S(=O)(=O)C(F)(F)F)S(=O)(=O)C(F)(F)F [Compound 250]	40	90	80	100	80	90	60	90	90	100	100	100	20	40	70	90	80	90	0	20	Plant response rating, Foxtail, Giant ([11]; 125 g ai/ha): 0; Plant response rating, Foxtail, Giant [11, 17]: 10; Plant response rating, Pigweed ([12]; 125 g ai/ha): 80; Plant response rating, Pigweed [12, 17]: 90; Plant response rating, Wheat ([13]; 125 g ai/ha): 20; Plant response rating, Wheat [13, 17]: 30; Plant response rating, Corn ([14]; 125 g ai/ha): 0; Plant response rating, Corn [14, 17]: 30; Plant response rating, Blackgrass ([15]; 125 g ai/ha): 0; Plant response rating, Blackgrass [15, 17]: 50; Plant response rating, Galium ([16]; 125 g ai/ha): 50; Plant response rating, Galium [16, 17]: 80
Cc1cc(Cl)c(C(=O)N(C)C)cc1NS(=O)(=O)C(F)(F)F [Compound 251]	20	90	90	90	80	80	90	100	50	90	100	100	70	70	40	60	70	80	30	80	Plant response rating, Foxtail, Giant ([11]; 125 g ai/ha): 10; Plant response rating, Foxtail, Giant [11, 17]: 80; Plant response rating, Pigweed ([12]; 125 g ai/ha): 80; Plant response rating, Pigweed [12, 17]: 80; Plant response rating, Wheat ([13]; 125 g ai/ha): 40; Plant response rating, Wheat [13, 17]: 70; Plant response rating, Corn ([14]; 125 g ai/ha): 0; Plant response rating, Corn [14, 17]: 30; Plant response rating, Blackgrass ([15]; 125 g ai/ha): 20; Plant response rating, Blackgrass [15, 17]: 60; Plant response rating, Galium ([16]; 125 g ai/ha): 80; Plant response rating, Galium [16, 17]: 80
Cc1cc(Cl)c(C(=O)N2CCCCC2)cc1NS(=O)(=O)C(F)(F)F [Compound 252]	40	100	60	80	80	90	60	100	100	100	100	100	0	30	30	60	10	90	30	70	Plant response rating, Foxtail, Giant ([11]; 125 g ai/ha): 0; Plant response rating, Foxtail, Giant [11, 17]: 40; Plant response rating, Pigweed ([12]; 125 g ai/ha): 70; Plant response rating, Pigweed [12, 17]: 80; Plant response rating, Wheat ([13]; 125 g ai/ha): 0; Plant response rating, Wheat [13, 17]: 40; Plant response rating, Corn ([14]; 125 g ai/ha): 10; Plant response rating, Corn [14, 17]: 0; Plant response rating, Blackgrass ([15]; 125 g ai/ha): 0; Plant response rating, Blackgrass [15, 17]: 0; Plant response rating, Galium ([16]; 125 g ai/ha): 80; Plant response rating, Galium [16, 17]: 80
Cc1cc(Cl)c(C(=O)N2CCCCC2)cc1N(S(=O)(=O)C(F)(F)F)S(=O)(=O)C(F)(F)F [Compound 253]	60	70	70	80	40	40	60	100	100	100	100	100	0	20	30	60	30	50	0	0	Plant response rating, Foxtail, Giant ([11]; 125 g ai/ha): 0; Plant response rating, Foxtail, Giant [11, 17]: 0; Plant response rating, Pigweed ([12]; 125 g ai/ha): 50; Plant response rating, Pigweed [12, 17]: 80; Plant response rating, Wheat ([13]; 125 g ai/ha): 0; Plant response rating, Wheat [13, 17]: 0; Plant response rating, Corn ([14]; 125 g ai/ha): 0; Plant response rating, Corn [14, 17]: 0; Plant response rating, Blackgrass ([15]; 125 g ai/ha): 0; Plant response rating, Blackgrass [15, 17]: 0; Plant response rating, Galium ([16]; 125 g ai/ha): 70; Plant response rating, Galium [16, 17]: 90
